Data as given in patent publication US20070042409A1 (priority 2005, published 2007).
Like-named read-outs stand apart in the source and are kept apart here. No end group written: not given here.

Legend:
[1] = system: obestatin receptors, crude plasma membrane preparation of rat jejunum; experiment: I^125-obestatin binding to crude plasma membrane preparation of rat jejunum; conditions: for inhibition of I^125-obestatin binding: jejunum preparation; for competition of I^125-obestatin binding: rat jejunum preparation
Method: Mixture of the peptide (20 μg) and 1 mCi [^125I] NaI was transferred to precoated Iodogen vials and incubated for 4 min. The ^125I-labeled peptide was applied to a Sep-Pak C18 cartridge (Waters, Milford, Mass.) before elution with 60% acetonitrile/0.1% TFA. For radioligand binding assays, rat jejunum or other tissues were washed with buffer A (20 mM Hepes, 5 mM EDTA, 1 mM dithiothreitol (DTT), 10 μM amidinophenylmethanesulfonyl fluoride, 5 mg/L leupeptin, 100 mM KCl, pH 7.5), cut into small pieces and homogenized using a Physcotron motorized homogenizer. The homogenates were centrifuged at 1,000 g for 5 min. and the supernatant was centrifuged at 300,000 g for 1 h at 2° C. The pellets (crude membrane fractions) were resuspended with buffer A without KCl, quickly frozen under liquid nitrogen, and stored at −80° C. until use. […] After incubation, the tubes were centrifuged for 10 min. at 10,000 g, and the pellet was washed twice in ice-cold PBS before counting using a γ-spectrophotometer. Specific binding was calculated by subtracting nonspecific binding from total binding.

[2] = target: T1, GPR39 (Homo sapiens, UniProt O43194); experiment: cAMP production in CHO cells overexpressing GPR39; format: cell-based
T1 construct: expressed in transfected cells; host or cells: CHO cells
T1 sequence (O43194 1-453): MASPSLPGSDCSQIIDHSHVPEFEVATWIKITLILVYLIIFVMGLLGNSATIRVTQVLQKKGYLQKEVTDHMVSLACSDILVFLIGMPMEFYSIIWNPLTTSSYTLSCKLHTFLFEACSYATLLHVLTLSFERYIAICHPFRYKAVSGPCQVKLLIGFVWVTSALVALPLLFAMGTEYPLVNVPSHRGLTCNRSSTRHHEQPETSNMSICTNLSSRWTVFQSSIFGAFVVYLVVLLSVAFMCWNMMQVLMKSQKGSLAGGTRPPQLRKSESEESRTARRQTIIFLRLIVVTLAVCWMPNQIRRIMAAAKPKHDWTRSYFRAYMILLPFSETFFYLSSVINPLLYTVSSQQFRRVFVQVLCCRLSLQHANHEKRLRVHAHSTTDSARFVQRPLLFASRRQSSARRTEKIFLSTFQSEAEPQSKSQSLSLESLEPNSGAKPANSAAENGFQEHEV

[3] = target: T1, GPR39; experiment: I^125-obestatin binding to CHO cells overexpressing GPR39
[4] = Food intake in food-deprived mice after intraperitoneal peptide treatment; format: in vivo; conditions: adult male mice, deprived of food 16 h, measured at 1, 3 and 5 h
Method: (§1) Analysis of gastrointestinal functions. Eight-week-old C57BL6 male mice were housed individually in a regulated environment. Before intraperitoneal treatment with different peptides, mice were deprived of food for 16 h with free access to water. Food intake was measured by placing preweighed pellets in the cage and weighing uneaten pellets at 1, 3 and 5 h after treatment. To estimate gastric emptying responses, mice deprived of food for 16 h were given food pellets for 90 min. before injection of different hormones or saline. After treatment, mice were deprived of food again and killed 2 h later. The stomach was excised at the pylorus and cardia before weighing. Gastric emptying was calculated by subtracting the stomach weight of treated mice from those killed at the time of the hormone injection.

[5] = Gastric emptying in mice; format: in vivo; conditions: adult male mice, intraperitoneal, killed 2 h after treatment
Method: as §1

[6] = Body weight gain in adult male rats; format: in vivo; conditions: for body weight: 1 μmol/kg body weight, thrice daily
[7] = system: cultured rat pituitary cells; experiment: GH secretion from cultured rat pituitary cells
Method: Pituitary cell cultures. Anterior pituitaries were removed from adult male Sprague-Dawley rats and dispersed with 0.3% collagenase, 0.1% hyaluronidase and DNase I (10 μg/ml). The cell suspension was centrifuged at 300 g for 5 min. and the cells were washed twice before incubated in DMEM containing 0.1% bovine serum albumin (BSA), penicillin (100 units/ml), streptomycin (100 μg/ml), fungizone (2.5 μg/ml) and 10% fetal calf serum. Cells were seeded onto poly-lysine-coated 24-well plates at a density of 2˜3×10^5 cells/well. Cultures were kept in a humidified atmosphere of 5% CO2 and 95% air at 37° C. […] Media was removed and rat GH was measured by an ELISA.

[8] = system: jejunum muscle strips; experiment: Isometric force measurement of jejunum muscle strips
Method: Isometric force measurements. Jejunum muscle strips (˜1 cm in length) were cut along the longitudinal axis of the circular muscle layer, and the mucosa was removed to minimize endogenous peptides. Muscle strips were mounted to a TIS8105R (Kent Scientific Corporation, Torrington, Conn.) isometric strain gauge and immersed in a 5 ml organ bath maintained at 37° C. with oxygenated KRB [Krebs-Ringer phosphate buffer, consisting of 50 mM HEPES, 100 mM NaCl, 5 mM KCl, and 1 mM each of MgCl2, NaH2PO4, and CaCl2] as described earlier (Porcher et al. (2005) Am J Physiol Gastrointest Liver Physiol 288(5): G1091-103.). A resting force of 1.0 g was applied to intestinal muscles and a 1.5 h equilibration period was allowed before testing of different peptides during a 5 min. period by incubating muscles with peptides at desired concentrations. After each test, muscle strips were washed with fresh KRB for 20 min. to allow full recovery of basal contractile activities. Maximal contraction was evaluated at the beginning and end of each experiment following treatment with 10 μM of acetylcholine chloride. Contractility data were digitized and stored in a computer using the Acknowledge software (MP 100, Biopac Systems, Inc., Goleta, Calif.). Magnitude of contractile strength is expressed as % of maximal contraction induced by acetylcholine.

[9] = target: T2, GHSR (Homo sapiens, UniProt Q92847); experiment: cAMP production in CHO cells expressing GHSR, with or without chimeric Gsq protein; format: cell-based; conditions: without Gsq
T2 construct: expressed in transfected cells; host or cells: CHO cells
T2 sequence (Q92847 whole entry, species assumed): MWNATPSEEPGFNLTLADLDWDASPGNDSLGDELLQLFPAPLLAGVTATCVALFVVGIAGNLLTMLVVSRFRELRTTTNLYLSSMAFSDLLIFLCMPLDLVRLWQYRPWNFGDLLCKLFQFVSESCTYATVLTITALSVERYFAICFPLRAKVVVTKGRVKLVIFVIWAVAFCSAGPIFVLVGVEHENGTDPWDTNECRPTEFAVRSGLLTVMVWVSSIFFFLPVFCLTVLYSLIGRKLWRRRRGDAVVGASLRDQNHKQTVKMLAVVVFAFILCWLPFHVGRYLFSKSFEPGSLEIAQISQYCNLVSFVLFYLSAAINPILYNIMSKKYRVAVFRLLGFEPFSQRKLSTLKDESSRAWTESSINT

[10] = target: T1, GPR39; experiment: SRE promoter-luciferase reporter in cells cotransfected with GPR39; format: cell-based; conditions: cotransfection of GPR39 and SRE promoter-luciferase construct
[11] = target: T3, V50-GPR39 (Homo sapiens, UniProt O43194, A50V); conditions: ratio of affinities to obestatin
T3 sequence (O43194 1-453 A50V): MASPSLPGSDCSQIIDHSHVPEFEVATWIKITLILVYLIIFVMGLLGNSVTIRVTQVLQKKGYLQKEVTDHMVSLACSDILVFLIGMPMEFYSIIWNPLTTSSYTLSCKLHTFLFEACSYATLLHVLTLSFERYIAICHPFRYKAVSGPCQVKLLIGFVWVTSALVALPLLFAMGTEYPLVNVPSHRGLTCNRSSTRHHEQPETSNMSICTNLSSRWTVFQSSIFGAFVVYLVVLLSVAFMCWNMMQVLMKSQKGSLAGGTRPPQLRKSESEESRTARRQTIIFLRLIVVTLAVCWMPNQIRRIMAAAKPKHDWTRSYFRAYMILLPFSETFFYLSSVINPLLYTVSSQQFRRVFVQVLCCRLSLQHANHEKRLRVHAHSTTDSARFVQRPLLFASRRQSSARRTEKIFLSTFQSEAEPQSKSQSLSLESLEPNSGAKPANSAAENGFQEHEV

[12] = target: T4, GPR39 (wild type A50-GPR39) (human, UniProt O43194 1-453); experiment: displacement of I^125-obestatin from GPR39
T4 construct: also called obestatin receptor; orphan receptor GPR39
T4 sequence: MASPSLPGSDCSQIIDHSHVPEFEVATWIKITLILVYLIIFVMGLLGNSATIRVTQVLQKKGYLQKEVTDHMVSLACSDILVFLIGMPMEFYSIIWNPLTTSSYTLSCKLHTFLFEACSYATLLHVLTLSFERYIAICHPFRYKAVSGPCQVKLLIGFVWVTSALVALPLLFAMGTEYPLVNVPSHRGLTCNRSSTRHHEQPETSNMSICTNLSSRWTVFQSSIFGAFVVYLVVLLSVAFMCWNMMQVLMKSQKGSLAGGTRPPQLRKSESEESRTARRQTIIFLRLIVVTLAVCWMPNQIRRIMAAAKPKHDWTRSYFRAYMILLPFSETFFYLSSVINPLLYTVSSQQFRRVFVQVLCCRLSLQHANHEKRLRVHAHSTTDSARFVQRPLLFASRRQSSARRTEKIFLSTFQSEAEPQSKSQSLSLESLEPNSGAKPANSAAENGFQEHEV

Nc1nc2c(ncn2[C@@H]2O[C@H](COP(=O)(O)OP(=O)(O)OP(O)(O)=S)[C@@H](O)[C@H]2O)c(=O)[nH]1 [GTPγS]
inhibition of I^125-obestatin binding ([1]; GTPγS 1 uM): 5% | inhibition of I^125-obestatin binding ([1]; GTPγS 10 uM): 20% | inhibition of I^125-obestatin binding ([1]; GTPγS 100 uM): 45%

CC[C@H](C)[C@H](NC(=O)[C@@H]1CCCN1C(=O)[C@@H](NC(=O)[C@@H](N)Cc1ccccc1)C(C)C)C(=O)N[C@@H](Cc1ccccc1)C(=O)N[C@H](C(=O)N[C@@H](Cc1ccc(O)cc1)C(=O)NCC(=O)N[C@@H](CCC(=O)O)C(=O)N[C@@H](CC(C)C)C(=O)N[C@@H](CCC(N)=O)C(=O)N[C@@H](CCCNC(=N)N)C(=O)N[C@@H](CCSC)C(=O)N[C@@H](CCC(N)=O)C(=O)N[C@@H](CCC(=O)O)C(=O)N[C@@H](CCCCN)C(=O)N[C@@H](CCC(=O)O)C(=O)N[C@@H](CCCNC(=N)N)C(=O)N[C@@H](CC(N)=O)C(=O)N[C@@H](CCCCN)C(=O)NCC(=O)N[C@@H](CCC(N)=O)C(=O)O)[C@@H](C)O [motilin]
competition of I^125-obestatin binding [1]: not competed | cAMP production [2]: ineffective

(des1-10)obestatin: truncated obestatin lacking residues 1-10 (LSGVQYQQHSQAL)
competition of I^125-obestatin binding [1]: less effective than obestatin | competition of obestatin binding to GPR39 [3]: less effective

NA-obestatin: non-amidated obestatin, synthesized by GL Biochem
food intake [4]: minimally effective | gastric emptying activity [5]: less effective | competition of I^125-obestatin binding [1]: less effective than obestatin

ghrelin: n-octanoylated 28 amino acid peptide, endogenous GHSR ligand; purchased from Phoenix Pharmaceuticals (GSSFLSPEHQRVQQRKESKKPPAKLQPR; not fully specified (residue 3); UniProt Q9UBU3 24-51, looked up) [reference compound]
food intake [4]: minimally effective | gastric emptying activity [5]: ineffective | body weight [6]: increased body weight | competition of I^125-obestatin binding [1]: not competed | cAMP production [2]: ineffective | GH secretion [7]: 2.32+/−0.08 ng/culture

neuromedin U: peptide purchased from Phoenix Pharmaceuticals (FRVDEEFQSPFASQSRGYFLFRPRN; ends and bridges not checked; UniProt P48645 142-166, looked up)
competition of I^125-obestatin binding [1]: not competed

synthesized amidated human obestatin, 23 residue peptide derived from proghrelin; FNAPFDVGIKLSGVQYQQHSQAL-NH2 (SEQ ID NO:4); also used iodinated as radioligand
food intake [4]: suppressed food intake for five hours in a dose-dependent manner | gastric emptying activity [5]: sustained suppression of gastric emptying activity | body weight [6]: suppressed body weight gain | body weight, cotreatment with ghrelin ([6]; cotreatment of obestatin with ghrelin): antagonized the orexigenic action of ghrelin | contractile activity of jejunum muscle strips in presence of ghrelin ([8]; effect on stimulatory effect of ghrelin): antagonized the known stimulatory effect of ghrelin | contractile activity of jejunum muscle strips ([8]; isometric force measurement): decreased contractile activity | Kd ([1]; labeled obestatin, rat jejunum crude plasma membrane): 4 nM | competition of obestatin binding to GPR39 [3]: competed | cAMP production [2]: dose-dependent increases in cAMP production | cAMP response [9]: did not respond | SRE promoter-luciferase signaling [10]: conferred obestatin | affinity of V50-GPR39 relative to wild type A50-GPR39 [11]: two-fold higher affinity | GH secretion ([7]; 100 nM, cultured rat pituitary cells, 1 h, control 1.04+/−0.03): 1.04+/−0.03 ng/culture

urocortin: peptide injected in mice as positive control for food intake suppression (DNPSLSIDLTFHLLRTLLELARTQSQRERAEQNRIIFDSV; ends and bridges not checked; UniProt P55089 83-122, looked up) [reference compound]
food intake [4]: suppressed food intake

B1: (des1-10)obestatin (peptide)
peptide: LSGVQYQQHSQAL
modifications: ends and bridges not checked
notes: Synthetic obestatin lacking residues 1-10; The range 11-23 is derived from the name; also called truncated (des1-10)obestatin
binding result [12]: binds
